Laboratory results as given in PubChem BioAssay (NCI).
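The concentration for 50% growth inhibition is given as GI50. TGI is the concentration that stops growth completely.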

Key:
Experiment in all cases: inhibition of tumour cell growth, NCI panel, 384-well format
[1] = system: UACC-257 melanoma
[2] = system: OVCAR-4 ovarian
[3] = system: M14 melanoma
[4] = system: HS 578T breast
[5] = system: MDA-MB-231 breast
[6] = system: A498 renal
[7] = system: HT29 colon
[8] = system: HOP-92 NSCLC
[9] = system: MDA-MB-435 melanoma
[10] = system: SK-MEL-2 melanoma
[11] = system: K-562 leukemia
[12] = system: MALME-3M melanoma
[13] = system: COLO 205 colon
[14] = system: UO-31 renal
[15] = system: UACC-62 melanoma
[16] = system: NCI-H23 lung
[17] = system: T-47D breast
[18] = system: SNB-19 CNS
[19] = system: SK-MEL-5 melanoma
[20] = system: OVCAR-8 ovarian
[21] = system: MCF7 breast
[22] = system: SF-539 CNS
[23] = system: SF-295 CNS
[24] = system: HL-60(TB) leukemia
[25] = system: OVCAR-3 ovarian
[26] = system: ACHN renal
[27] = system: NCI/ADR-RES ovarian
[28] = system: RXF 393 renal
[29] = system: SR leukemia
[30] = system: SK-OV-3 ovarian
[31] = system: LOX IMVI melanoma
[32] = system: CAKI-1 renal
[33] = system: NCI-H322M lung
[34] = system: MOLT-4 leukemia
[35] = system: RPMI-8226 leukemia
[36] = system: HCC-2998 colon
[37] = system: OVCAR-5 ovarian
[38] = system: PC-3 prostate
[39] = system: EKVX NSCLC
[40] = system: SNB-75 CNS
[41] = system: SK-MEL-28 melanoma
[42] = system: HCT-116 colon
[43] = system: BT-549 breast
[44] = system: SF-268 CNS
[45] = system: HCT-15 colon
[46] = system: 786-0 renal
[47] = system: MDA-MB-468 breast

With `COc1nn(C)cc1Nc1nccc(-c2c[nH]c3c(NC(=O)[C@@H](C)N4CCN(C)CC4)cccc23)n1` the GI50 [1] was 16.9 µM, the TGI [1] was 30.7 µM and the GI50 [2] was 30.2 µM. The TGI [2] was > 62.1 µM, the GI50 [3] was 16.1 µM and the TGI [3] was 31.2 µM. For the same compound, the GI50 [4] was 13 µM, the TGI [4] was 25.9 µM and the GI50 [5] was 28 µM. The TGI [5] was > 95.5 µM, the GI50 [6] was 14.2 µM and the TGI [6] was > 60.4 µM. For the same compound, the GI50 [7] was 17.7 µM, the TGI [7] was 32.8 µM and the GI50 [8] was 20.4 µM. For the same compound, the TGI [8] was 47.6 µM, the GI50 [9] was 13.5 µM and the TGI [9] was 30.8 µM. For the same compound, the GI50 [10] was 14.7 µM, the TGI [10] was 29.5 µM and the GI50 [11] was 10.5 µM. It also gave a TGI [11] of 26.5 µM, a GI50 [12] of 14.9 µM and a TGI [12] of 29.2 µM. The GI50 [13] was 20.5 µM, the TGI [13] was 36.9 µM and the GI50 [14] was 17.3 µM. It also gave a TGI [14] of 32.5 µM, a GI50 [15] of 17.7 µM and a TGI [15] of 38.2 µM. It also gave a GI50 [16] of 17.4 µM, a TGI [16] of 42.3 µM and a GI50 [17] of 29 µM. The TGI [17] was > 89.4 µM, the GI50 [18] was 41.2 µM and the TGI [18] was > 100 µM. For the same compound, the GI50 [19] was 14.5 µM, the TGI [19] was 28.3 µM and the GI50 [20] was 45.1 µM. For the same compound, the TGI [20] was > 76.3 µM, the GI50 [21] was 18 µM and the TGI [21] was > 71.9 µM. It also gave a GI50 [22] of 14.8 µM, a TGI [22] of 30.3 µM and a GI50 [23] of 28.1 µM. The TGI [23] was > 61.6 µM, the GI50 [24] was 11.8 µM and the TGI [24] was 24.1 µM. For the same compound, the GI50 [25] was 18.7 µM, the TGI [25] was 51.2 µM and the GI50 [26] was 21.3 µM. The TGI [26] was > 67.2 µM, the GI50 [27] was 45.4 µM and the TGI [27] was > 100 µM. For the same compound, the GI50 [28] was 14.9 µM, the TGI [28] was 30.6 µM and the GI50 [29] was 9.69 µM. It also gave a TGI [29] of 21.5 µM, a GI50 [30] of 9.78 µM and a TGI [30] of 31.6 µM. It also gave a GI50 [31] of 15.1 µM, a TGI [31] of 28.4 µM and a GI50 [32] of 11.7 µM. The TGI [32] was 28.6 µM, the GI50 [33] was > 52.3 µM and the TGI [33] was > 100 µM. For the same compound, the GI50 [34] was 13.2 µM, the TGI [34] was 26.4 µM and the GI50 [35] was 11.2 µM. For the same compound, the TGI [35] was 26.6 µM, the GI50 [36] was 19.5 µM and the TGI [36] was 37.3 µM. The GI50 [37] was 25.1 µM, the TGI [37] was 65.2 µM and the GI50 [38] was 23.1 µM. The TGI [38] was 86 µM, the GI50 [39] was 18.7 µM and the TGI [39] was 49.5 µM. The GI50 [40] was 17.7 µM, the TGI [40] was 32 µM and the GI50 [41] was 26.9 µM. For the same compound, the TGI [41] was > 66.1 µM, the GI50 [42] was 19.8 µM and the TGI [42] was 43.2 µM. For the same compound, the GI50 [43] was 17.2 µM, the TGI [43] was 32.4 µM and the GI50 [44] was 18.4 µM. For the same compound, the TGI [44] was 37 µM, the GI50 [45] was 18.7 µM and the TGI [45] was 51.7 µM. It also gave a GI50 [46] of 18.4 µM, a TGI [46] of 41.5 µM and a GI50 [47] of 15.1 µM. The TGI [47] was 30.9 µM.
